Assay results from US5955501A, “Protein kinase C modulators O” (priority 1995, dated 1999).

Columns and labels:
[1] = test system: HIV; experiment: Anti-HIV activity in HIV-infected human peripheral blood lymphocytes (supernatant viral RNA and p24 core protein); format: cell-based; conditions: Human immunodeficiency virus 1, Lymphocyte; for EC50: from dose-response curves or by estimation from one or more experimental drug concentrations, read-out: anti-HIV ED50 for RNA
Experimental: Human peripheral blood lymphocytes were isolated from the buffy coat fractions of blood donations. The lymphocytes were then stimulated with 5 μg/ml of phytohemagglutinin for 48 hours. Prior to infection with HIV, the lymphocytes were washed and resuspended in mitogen-free medium. On day 0 the cells were infected with HIV and were cultured for four days in the presence or absence of graded concentrations of 20-deoxy-20-chlorophorbol 12,13-bis[(2',4'-difluorophenyl)acetate]. On days 3 and 4 the supernatant levels of total viral RNA and viral core protein p24 were determined at each drug concentration and dose-response curves were used to determine the concentration of drug giving 50% inhibition of production of viral RNA and of p24 core protein. At four days these ED50 values were less than 100 pM for both RNA and p24.
(§1) In a manner similar to Example 111, the anti-HIV ED50 values for RNA [drug concentration is in brackets] for the following diterpenoid compounds were determined from dose-response curves or by estimation from one or more experimental drug concentrations.
as §1, with “indolactam-type” for “diterpenoid”, “concentrations, data giving percent inhibition of viral RNA production at selected concentrations appear in parentheses:” for “concentrations.”
as §1, with “diacylglycero-type” for “diterpenoid”, “concentrations; data giving percent inhibition of viral RNA production at selected concentrations appear in parentheses: […]” for “concentrations.”

[2] = test system: T-24 human bladder carcinoma cells; experiment: Anti-cancer activity: methylene blue cell growth assay; format: cell-based; conditions: 5-6 days incubation, methylene blue staining, read-out: IC50 (drug concentration which leads to 50% of cells per well compared to control cultures)
Experimental: T-24 human bladder carcinoma cells were cultured in Eagle's minimal essential medium supplemented with 5% fetal bovine serum. Cells (1,000) were seeded into 96-well microtiter plates and incubated overnight. Serial dilutions of 20-deoxy-20(2'-hydroxyethylthio)phorbol 12-myristate 13-acetate (dissolved in DMSO and then diluted with culture medium) were added to the wells on day 1. The plates were incubated for 5-6 days to allow the control cultures to undergo at least 3 cell divisions. After the incubation period, the cells were fixed with glutaraldehyde, washed with water and stained with 0.05% methylene blue. After washing the dye was eluted with 3% HCl. The optical density per well was measured at 665 nm and compared using the formula:(OD Test-OD Start)/(OD Control-OD Start)×100.

[3] = test system: phorbol 12-myristate 13-acetate induced ear inflammation/erythema; experiment: Mouse ear inflammation test: inhibition of phorbol 12-myristate 13-acetate induced inflammation/erythema; format: in vivo, mice
Experimental: Method: A stock solution of 300 pmoles of the standard inflammatory compound phorbol 12-myristate 13-acetate per 5 μL acetone was prepared. This solution was used to prepare four-fold dilutions of 20-deoxy-20-(2'-hydroxyethylthio)phorbol 12-myristate 13-acetate, prepared as in Example 3, covering concentrations of the latter ranging from 4 to 64,000 pmoles per 5 μL.

[4] = test system: Human RPMI-7272 melanoma cells; experiment: Anti-melanoma activity: inhibition of cell doublings; format: cell-based; conditions: 72 h of exposure, read-out: ID50 (concentration of drug required to inhibit cell doublings by 50%)
Experimental: Human RPMI-7272 melanoma cells were grown in the standard culture medium under normal incubation conditions. On day 1 the cells were cultured in the absence (control) or presence of graded concentrations (3-100 μg/ml) of 20-deoxy-20-(2'-hydroxyethylthio)phorbol 12-myristate 13-acetate in separate tubes. On day 4 after 72 h of exposure the number of cells in each tube was measured and the number of cell doublings determined. The drug treated tubes were compared to the control tube.

[5] = test system: HL-60 promyelocytic leukemia cells; experiment: Anti-leukemic activity: MTT cell growth assay; format: cell-based; conditions: Homo sapiens, HL-60, 192 h, 8 days incubation, read-out: IC50 (drug concentration which leads to 50% of cells per well compared to control cultures)
Experimental: HL-60 promyelocytic leukemia cells were cultured in RPMI 1640 medium supplemented with 10% fetal bovine serum. Cells (7,500) were seeded into 96-well microtiter plates and incubated overnight. Serial dilutions of 20-deoxy-20-(2'-hydroxyethylthio)phorbol 12-myristate 13-acetate (dissolved in DMSo and then diluted with culture medium) were added to the wells on day 1. The plates were incubated for 8 days to allow the control cultures to undergo at least 3 cell divisions. The cell growth was monitored by using the calorimetric MTT (tetrazolium) assay [Mosmann, T., J. Immunol. Meth. 65: 55-63 (1983)]. After the incubation period, the cells were washed with phosphate-buffered saline in the microtiter plate. DMSO was then added to each well and the dish was put on a shaker for 20 min. The optical density was measured at 540 nm and compared using the formula:(OD Test OD Start)/(OD Control - OD Start) x 100.

[6] = test system: diacylglycerol site; experiment: Diacylglycerol site binding activity (test not described at the place)
[7] = Anti-viral properties (test not described at the place)
[8] = test system: diacylglycerol/phorboid-type binding sites in mouse skin and in purified preparations of protein kinase C isotypes; conditions: Dunn and Blumberg; Ryves et al. 1991; cited from earlier work

Molecule	EC50 [1] [µM]	IC50 [2] [µM]	selectivity factor in dissociation constant among the different binding sites [8]	also measured
CCCCCCCCCCCCCC(=O)O[C@@H]1[C@@H](C)[C@@]2(O)[C@@H](C=C(CC#N)C[C@]3(O)C(=O)C(C)=C[C@@H]23)[C@@H]2C(C)(C)[C@]12OC(C)=O [20-deoxy-20-cyanophorbol 12-myristate 13-acetate]	1.5	2		
CCCCCCCCCCCCCC(=O)O[C@@H]1[C@@H](C)[C@@]2(O)[C@@H](C=C(CSCCO)C[C@]3(O)C(=O)C(C)=C[C@@H]23)[C@@H]2C(C)(C)[C@]12OC(C)=O [20-deoxy-20-(2'-hydroxyethylthio)phorbol 12-myristate 13-acetate]		13		inhibition of phorbol 12-myristate 13-acetate induced ear inflammation/erythema ([3]; applied with 300 pmoles phorbol 12-myristate 13-acetate per 5 μL acetone to inside of right ear, observed 1 to 48 hours): Inhibition of the phorbol 12-myristate 13-acetate induced inflammation was observed at the medium and higher concentrations; IC50 [4]: 42 µM; IC50 [5]: 5.4 µM
C=C1C[C@]2(O)C(=O)C(C)=C[C@H]2[C@@]2(O)[C@H](C)[C@@H](OC(=O)CCCCCCCCCCCCC)[C@]3(OC(C)=O)[C@H]([C@@H]2C1CO)C3(C)C (stereo partly drawn) [12-β-myristoyloxy-13-acetoxy-4,9-dihydroxy-7-hydroxymethyl-1,6(20)-tigliadien-3-one]		5.5		anti-inflammatory activity ([3]; general statement in the description, test not named there): good anti-inflammatory activity; IC50 [5]: 5.2 µM
CCCCCCCCCCCCCC(=O)O[C@@H]1[C@@H](C)[C@@]2(O)[C@@H](C=C(CCC3=C[C@H]4[C@@H]5C(C)(C)[C@]5(OC(C)=O)[C@H](OC(=O)CCCCCCCCCCCCC)[C@@H](C)[C@]4(O)[C@@H]4C=C(C)C(=O)[C@@]4(O)C3)C[C@]3(O)C(=O)C(C)=C[C@@H]23)[C@@H]2C(C)(C)[C@]12OC(C)=O [20-Deoxy-20-[20'-deoxyphorbol-20'-yl(12'-myristate 13'-acetate)]phorbol 12-Myristate 13-Acetate]				diacylglycerol site binding activity [6]: still exhibits diacylglycerol site binding activity; anti-viral properties [7]: anti-viral properties
CC1=C[C@H]2[C@@]3(O)[C@H](C)C[C@]4(OC(=O)Cc5ccccc5)[C@H]([C@@H]3C=C(CO)C[C@]2(O)C1=O)C4(C)C [12-deoxyphorbol 13-phenylacetate]			10-1000	
CCCC(=O)O[C@@H]1[C@@H](C)[C@@]2(O)[C@@H](C=C(CO)C[C@]3(O)C(=O)C(C)=C[C@@H]23)[C@@H]2C(C)(C)[C@]12OC(=O)CCC [phorbol 12,13-dibutyrate]			10-1000	
CC1=C[C@H]2[C@@]3(O)[C@H](C)C[C@]4(OC(=O)C(C)C)[C@H]([C@@H]3C=C(CO)C[C@]2(O)C1=O)C4(C)C [12-deoxyphorbol 13-isobutyrate]			10-1000	
CCCCCCCCCCCCCC(=O)O[C@@H]1[C@@H](C)[C@@]2(O)[C@@H](C=C(COC(=O)NC)C[C@]3(O)C(=O)C(C)=C[C@@H]23)[C@@H]2C(C)(C)[C@]12OC(C)=O [phorbol 12-myristate 13-acetate 20-methylcarbamate]		6.3		IC50 [5]: 2.6 µM
CC1=C[C@H]2[C@@]3(O)[C@H](C)[C@@H](OC(=O)Cc4c(F)c(F)c(F)c(F)c4F)[C@]4(OC(=O)Cc5c(F)c(F)c(F)c(F)c5F)[C@H]([C@@H]3C=C(CF)C[C@]2(O)C1=O)C4(C)C [20-deoxy-20-fluorophorbol 12,13-bis[(pentafluorophenyl)acetate]]	0.001			
CCCCCCCCc1ccc2c3c(c[nH]c13)C[C@@H](COC(=O)NC)NC(=O)[C@H](C(C)C)N2C [14-O-(N-Methyl)carbamoyl-7-octyl-(9S,12S)-indolactam V]				inhibition at 10 µM ([1]; read-out: percent inhibition of viral RNA production): 87%
CC1=C[C@H]2[C@@]3(O)[C@H](C)[C@@H](OC(=O)Cc4ccc(F)cc4F)[C@]4(OC(=O)Cc5ccc(F)cc5F)[C@H]([C@@H]3C=C(CBr)C[C@]2(O)C1=O)C4(C)C [20-deoxy-20-bromophorbol 12,13-bis[(2',4'-difluorophenyl)acetate]]	< 0.001			
CCC[S+]([O-])CC1=C[C@H]2[C@@H]3C(C)(C)[C@]3(OC(=O)Cc3ccc(F)cc3F)[C@H](OC(=O)Cc3ccc(F)cc3F)[C@@H](C)[C@]2(O)[C@@H]2C=C(C)C(=O)[C@@]2(O)C1 (stereo partly drawn) [20-deoxy-20-(propylsulfinyl)phorbol 12,13-bis[(2',4'-difluorophenyl)acetate]]	0.5			
thymeleatoxin			10-1000	
